Results on three compounds are retold here after PMC7567334 (Environmental Health Perspectives, 2020).

The target in data set [1] is Androgen receptor. Particulars: ref Rostkowski et al. 2011, cited from earlier work.
Data set [2] deals with T1, GR (Homo sapiens, UniProt P04150).
T1 sequence (P04150 1-777): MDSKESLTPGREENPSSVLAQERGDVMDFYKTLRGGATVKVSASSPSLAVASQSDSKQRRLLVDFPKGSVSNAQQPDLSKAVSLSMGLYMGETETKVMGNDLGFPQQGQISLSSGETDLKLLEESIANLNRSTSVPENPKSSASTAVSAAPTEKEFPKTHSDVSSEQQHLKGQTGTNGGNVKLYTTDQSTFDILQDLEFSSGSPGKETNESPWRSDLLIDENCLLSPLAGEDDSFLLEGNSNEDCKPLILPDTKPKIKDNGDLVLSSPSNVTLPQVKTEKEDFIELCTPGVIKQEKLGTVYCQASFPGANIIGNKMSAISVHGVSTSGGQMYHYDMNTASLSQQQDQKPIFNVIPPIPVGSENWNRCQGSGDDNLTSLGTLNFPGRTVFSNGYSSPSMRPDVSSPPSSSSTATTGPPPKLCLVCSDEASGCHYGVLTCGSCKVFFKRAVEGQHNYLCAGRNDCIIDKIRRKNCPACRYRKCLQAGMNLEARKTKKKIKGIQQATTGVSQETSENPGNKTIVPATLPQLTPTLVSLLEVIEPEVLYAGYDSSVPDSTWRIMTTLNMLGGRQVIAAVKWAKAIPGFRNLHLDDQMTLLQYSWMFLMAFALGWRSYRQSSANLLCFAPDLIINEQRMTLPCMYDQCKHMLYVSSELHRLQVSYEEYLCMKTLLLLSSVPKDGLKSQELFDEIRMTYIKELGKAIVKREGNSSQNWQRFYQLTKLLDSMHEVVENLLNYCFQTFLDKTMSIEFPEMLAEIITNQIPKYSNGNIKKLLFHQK
Put plainly: MDA-kb2 GR reporter assay, antagonist setup (500 nM HC). Details: constitutively expressed high levels of functional GR and AR; host or cells: MDA-kb2. It counts as cell-based.

Data set [3] addresses T1, GR. The data set can be described thus: PolarScreen GR Competitor binding affinity assay. Details: purchased Invitrogen. Particulars: for binding affinity assay on isolated GR, result: in words, tested up to 10 μM.
Another data set addresses T2, AR (Rattus norvegicus, UniProt P15207).
T2 construct: purchased Invitrogen
T2 sequence (P15207 651-902 limits assumed): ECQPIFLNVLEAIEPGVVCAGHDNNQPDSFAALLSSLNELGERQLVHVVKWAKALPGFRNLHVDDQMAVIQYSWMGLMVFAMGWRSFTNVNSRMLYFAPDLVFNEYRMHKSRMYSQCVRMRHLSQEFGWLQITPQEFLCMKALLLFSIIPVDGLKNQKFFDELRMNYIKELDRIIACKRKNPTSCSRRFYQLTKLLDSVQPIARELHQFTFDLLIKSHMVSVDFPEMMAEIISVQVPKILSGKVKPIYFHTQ
Put plainly: PolarScreen AR Competitor binding affinity assay.

Data set [4] deals with TRα and TRβ. The data set can be described thus: GH3.TRE-Luc TR reporter assay, antagonist setup (0.25 nM T3). It counts as cell-based, rat. Particulars: for TR antagonist activity, call / concentration with TR antagonist activity: GH3.TRE-Luc.
Another data set has as its system hERα-HeLa-9903 cells. The data set can be described thus: Cell viability (resazurin) in hERα-HeLa-9903 cells. Particulars: hERα-HeLa-9903, ERα agonist dose-response.
Data set [5] concerns the target Androgen receptor. The conditions noted are these: ref Rostkowski et al. 2011, cited from earlier work. The source holds these as a separate data set.
The next data set deals with stickleback AR. Details: method as in Lange et al. 2015. The conditions noted are these: at 10 μM; ref Lange et al. 2015; cited from earlier work.
Another data set concerns the target T3, firefly luciferase (Photinus pyralis, UniProt P08659).
T3 construct: Only implied by 'CP' in the vector name, from my own knowledge; expressed in transfected cells; host or cells: GH3.TRE-Luc cells induced with 0.25 nM T3, lysate
The data set can be described thus: Luciferase inhibition assay in GH3.TRE-Luc cell lysates. It counts as biochemical. The conditions noted are these: cell lysate, read-out: inhibition of firefly luciferase luminescence signal. The protocol: Serial dilutions for each treatment were prepared in the cell lysate and incubated at room temperature for 30 min.

Another data set concerns the target T4, human (h)AR (Homo sapiens, UniProt P10275).
T4 sequence (P10275 1-920): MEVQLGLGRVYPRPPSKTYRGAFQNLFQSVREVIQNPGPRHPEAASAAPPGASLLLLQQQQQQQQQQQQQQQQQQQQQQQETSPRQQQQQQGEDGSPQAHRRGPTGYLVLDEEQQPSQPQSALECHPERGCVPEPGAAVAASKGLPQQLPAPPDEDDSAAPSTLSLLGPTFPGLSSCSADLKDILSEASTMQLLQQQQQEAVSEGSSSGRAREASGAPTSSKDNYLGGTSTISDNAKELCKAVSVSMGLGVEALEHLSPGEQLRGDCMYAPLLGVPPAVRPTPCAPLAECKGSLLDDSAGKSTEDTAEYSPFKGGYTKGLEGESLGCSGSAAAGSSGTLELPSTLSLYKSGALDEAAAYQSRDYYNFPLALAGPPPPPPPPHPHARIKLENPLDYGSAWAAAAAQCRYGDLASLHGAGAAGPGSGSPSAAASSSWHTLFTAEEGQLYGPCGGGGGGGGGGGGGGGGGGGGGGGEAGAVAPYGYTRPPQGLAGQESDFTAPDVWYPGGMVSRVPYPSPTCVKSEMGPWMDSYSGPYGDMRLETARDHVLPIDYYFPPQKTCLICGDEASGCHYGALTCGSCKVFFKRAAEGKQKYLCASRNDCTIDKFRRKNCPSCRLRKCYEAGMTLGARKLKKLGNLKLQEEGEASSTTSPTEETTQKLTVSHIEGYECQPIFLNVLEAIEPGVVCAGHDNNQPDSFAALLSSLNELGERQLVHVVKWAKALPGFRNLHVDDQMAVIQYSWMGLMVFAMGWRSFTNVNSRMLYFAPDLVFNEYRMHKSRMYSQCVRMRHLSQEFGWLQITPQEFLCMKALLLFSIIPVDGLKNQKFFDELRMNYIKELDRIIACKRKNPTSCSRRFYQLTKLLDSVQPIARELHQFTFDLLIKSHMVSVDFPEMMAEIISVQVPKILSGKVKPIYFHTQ
The data set can be described thus: AR-EcoScreen hAR transcriptional activation assay, antagonist setup (500 pM DHT). It counts as cell-based.

In another data set the test system is Thyroid receptor. Particulars: ZFL cell line; ref Zhou et al. 2017; cited from earlier work.
Data set [6] concerns TRα and TRβ. The data set can be described thus: GH3.TRE-Luc TR reporter assay, agonist setup. It counts as cell-based, rat. The conditions noted are these: 10 μM; vs 0.1% DMSO.
Data set [7] deals with T1, GR. The data set can be described thus: MDA-kb2 GR reporter assay, agonist setup (with FLU). It counts as cell-based. Details: constitutively expressed high levels of functional GR and AR; host or cells: MDA-kb2. Particulars: 10 μM; vs 0.1% DMSO with 5 μM FLU.
In the next data set the test system is Glucocorticoid receptor. Particulars: MDA-kb2 at 5 μM; ref Kolšek et al. 2014a; cited from earlier work.
For data set [8] the following is noted: ref Sandborgh-Englund et al. 2006, cited from earlier work.
The target in another data set is T5, human (h) ERα (Homo sapiens, UniProt P03372).
T5 sequence (P03372 1-595): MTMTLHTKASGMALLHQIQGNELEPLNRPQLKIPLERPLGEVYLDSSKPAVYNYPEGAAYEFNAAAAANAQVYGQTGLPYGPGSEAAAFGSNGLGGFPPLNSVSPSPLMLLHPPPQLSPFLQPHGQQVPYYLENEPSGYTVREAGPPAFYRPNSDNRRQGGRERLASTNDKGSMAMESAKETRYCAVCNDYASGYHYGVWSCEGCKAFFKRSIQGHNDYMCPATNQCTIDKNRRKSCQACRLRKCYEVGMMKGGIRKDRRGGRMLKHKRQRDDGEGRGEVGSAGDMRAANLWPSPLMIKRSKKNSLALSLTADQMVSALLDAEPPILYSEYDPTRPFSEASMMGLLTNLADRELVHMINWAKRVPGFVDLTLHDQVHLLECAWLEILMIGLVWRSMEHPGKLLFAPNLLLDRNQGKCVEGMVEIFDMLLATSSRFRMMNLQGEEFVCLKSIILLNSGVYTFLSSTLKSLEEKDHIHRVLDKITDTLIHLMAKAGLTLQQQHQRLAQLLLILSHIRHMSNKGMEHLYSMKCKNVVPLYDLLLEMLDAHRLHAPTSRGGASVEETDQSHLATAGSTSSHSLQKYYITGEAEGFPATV
Put plainly: hERα-HeLa-9903 transactivation assay, agonist setup. It counts as cell-based. Details: host or cells: hERα-HeLa-9903 (HeLa derived). The conditions noted are these: for higher ERα RTA than vehicle control: vs 0.1% DMSO.

For the next data set, the system named is Estrogen receptor-α. The conditions noted are these: YES/YAS tests; ref Westlund and Yargeau 2017; cited from earlier work.

Structures are written as SMILES. Several values for one entry are separate records, joined by “and”; a condition that tells them apart may be missing. Equal entries are not always repeated. Where two headings read alike, the source gives them in different places.

T3 sequence (P08659 whole entry): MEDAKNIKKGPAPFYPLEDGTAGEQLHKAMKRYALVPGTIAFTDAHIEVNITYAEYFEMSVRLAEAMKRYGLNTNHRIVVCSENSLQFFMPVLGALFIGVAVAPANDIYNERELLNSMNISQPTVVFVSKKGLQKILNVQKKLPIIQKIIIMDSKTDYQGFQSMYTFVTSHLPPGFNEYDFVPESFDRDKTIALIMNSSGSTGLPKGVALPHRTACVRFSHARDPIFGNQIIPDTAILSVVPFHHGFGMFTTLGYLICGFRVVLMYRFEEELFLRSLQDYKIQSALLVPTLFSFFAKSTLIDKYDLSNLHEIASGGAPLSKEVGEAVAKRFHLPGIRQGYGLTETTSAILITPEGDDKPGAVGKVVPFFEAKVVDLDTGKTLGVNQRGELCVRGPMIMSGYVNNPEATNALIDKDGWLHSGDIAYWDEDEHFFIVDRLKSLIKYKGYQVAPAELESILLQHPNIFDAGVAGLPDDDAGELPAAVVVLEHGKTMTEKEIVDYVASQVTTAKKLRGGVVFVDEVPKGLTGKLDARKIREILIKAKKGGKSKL

Regarding `Oc1ccc(Cl)cc1Cc1ccccc1` [Chlorophene, 2-Benzyl-4-chlorophenol], the IC50 was 0.54 µM on Androgen receptor [1] (antiandrogenic, read-out: anti-YAS IC50); 0.8 µM on Androgen receptor [5] (antiandrogenic, read-out: AR-CALUX IC50); 2.36 µM and 2.4 µM at human (h)AR (AR antagonist IC50, AR-EcoScreen, 500 pM DHT). The “effect on AR, yeast based assay” value in the data set on Androgen receptor [1] was “Antagonist ([Rostkowski et al. 2011])”. Also, the “GR activity in MDA-kb2 cell line, call” value at GR [2] (10 μM) is given as “Negative”. Besides, at GR [3], the “binding affinity assay on isolated GR, result” value is reported as “positive”. The EC50 at GR [3] (read-out: binding to isolated GR, EC50) is 10.5 µM; on AR, 2.16 µM. Besides, at AR (in words, tested up to 10 μM), the “binding affinity assay on isolated AR, result” value is given as “positive”. Also, the “TR antagonist activity, call” value in the data set with TRα and TRβ [4] is listed as “Antagonist”. The “concentration with TR antagonist activity” value in the data set on TRα and TRβ [4] was found to be 10 µM. The “highest tested concentration as limited by precipitation and cytotoxicity” value with hERα-HeLa-9903 cells was found to be 50 µM. Moreover, in the data set on Androgen receptor [5], the “effect on AR in AR-CALUX assay” value was “Antagonist in AR-CALUX assay ([Rostkowski et al. 2011])”. In addition, in the data set on stickleback AR, the “effect on stickleback AR” value is “Antagonist at 10μM in a stickleback AR reporter assay ([Lange et al. 2015])”. Besides, at firefly luciferase, the inhibition at 50 µM is ~12%. The “lower AR RTA than spike-in control” value at human (h)AR (10 μM, vs 0.1% DMSO with 500 pM DHT) is on record as > 90%. Besides, at human (h)AR (AR-EcoScreen), the “AR antagonist activity, call” value is recorded as “Antagonist”.
On to `Oc1cc(Cl)ccc1Oc1ccc(Cl)cc1Cl` [Triclosan, 5-Chloro-2-(2,4-dichlorophenoxy) phenol], for which, on GR [2] (10 μM, vs 0.1% DMSO with 500 nM HC), the “lower GR RTA than spike-in control” value turned out to be 53.2%. Also, the “GR antagonist activity, call” value on GR [2] (MDA-kb2) was “Antagonist”. Moreover, on GR [3], the EC50 turned out to be 27.3 µM and the “binding affinity assay on isolated GR, result” value was “positive”. In addition, the IC50 in the data set on TRα and TRβ [4] (0.25 nM T3, read-out: TR antagonist IC50) is 3.6 µM and 3.61 µM. Moreover, the “lower TR RTA than spike-in control” value in the data set with TRα and TRβ [4] (5 μM, vs 0.1% DMSO with 0.25 nM T3) was determined as 71.9%. In addition, in the data set on TRα and TRβ [4], the “TR antagonist activity, call” value is “Antagonist” and the “concentration with TR antagonist activity” value stood at 5 µM. Besides, the “effect on TR” value with Thyroid receptor is “No effect in ZFL cell line ([Zhou et al. 2017])”. Further, the “baseline TR-mediated transcriptional activity lower than vehicle control (agonist setup)” value with TRα and TRβ [6] is on record as > 50%. Moreover, the “lower GR RTA than vehicle control (agonist assay)” value on GR [7] is recorded as 53.6%. The “effect on GR” value in the data set on Glucocorticoid receptor is “No effect in MDA-kb2 at 5μM ([Kolšek et al. 2014a])”. Also, the “effect on stickleback AR” value with stickleback AR is “Antagonist at 10μM in stickleback AR reporter assay ([Lange et al. 2015])”. Also, at firefly luciferase, the inhibition at 50 µM is ~12%. In data set [8] (10 healthy volunteers, single dose of mouthwash), the peak plasma concentration is 0.5 to 1.2 µM. Moreover, the “preexperiment median plasma baseline concentration” value in data set [8] (10 healthy volunteers) is 5.5 nM. In addition, the “time of plasma peak after exposure” value in [8] is reported as “up to 3 h”.
`CC(C)(C)C(=O)C(Oc1ccc(Cl)cc1)n1ccnc1` (stereo not drawn) [Climbazole, 1-(4-Chlorophenoxy)-1-(imidazol-1-yl)-3,3-dimethylbutan-2-one]: the “higher ERα RTA than vehicle control” value at human (h) ERα (10 μM) is > 30.0% and 36.6%. On human (h) ERα (100 μM), the “higher ERα RTA than vehicle control” value was 94%. Moreover, at human (h) ERα (hERα-HeLa-9903), the “ERα agonist activity, call” value is recorded as “Agonist” and the “concentration with ERα agonist activity” value was in the range of 10 to 100 µM. Besides, in the data set on TRα and TRβ [4], the “TR antagonist activity, call” value is listed as “Antagonist” and the “concentration with TR antagonist activity” value is 10 µM. The “effect on ER, yeast based assay” value in the data set on Estrogen receptor-α was “No effect ([Westlund and Yargeau 2017])”. Moreover, the inhibition at 50 µM at firefly luciferase is ~12%.
